Test: excess molar enthalpy (molar enthalpy of mixing); xn = mol fraction of the nth substance listed
Details: 308.15 K, 100 kPa

CS(C)=O + COC(=O)OC
Details	excess molar enthalpy [kcal/mol]
x1 = 0.0473	0.0447
x1 = 0.0904	0.0755
x1 = 0.1297	0.0989
x1 = 0.1657	0.111
x1 = 0.2296	0.129
x1 = 0.3735	0.147
x1 = 0.5438	0.145
x1 = 0.6414	0.138
x1 = 0.7045	0.127
x1 = 0.7815	0.112
x1 = 0.8267	0.097
x1 = 0.8774	0.077
x1 = 0.9051	0.0631
x1 = 0.9662	0.0246

CC1COC(=O)O1 (stereo unspecified) + CS(C)=O
Details	excess molar enthalpy [kcal/mol]
x2 = 0.0571	0.0186
x2 = 0.108	0.0332
x2 = 0.1538	0.0457
x2 = 0.195	0.0545
x2 = 0.2666	0.0703
x2 = 0.3264	0.0803
x2 = 0.4209	0.0915
x2 = 0.492	0.0989
x2 = 0.6857	0.0949
x2 = 0.7441	0.0856
x2 = 0.8135	0.0712
x2 = 0.9458	0.0263
x2 = 0.9721	0.0139

CCOC(=O)OCC + CS(C)=O
Details	excess molar enthalpy [kcal/mol]
x2 = 0.0666	0.0901
x2 = 0.1249	0.146
x2 = 0.1764	0.183
x2 = 0.2221	0.208
x2 = 0.3635	0.247
x2 = 0.4614	0.252
x2 = 0.6315	0.232
x2 = 0.7199	0.206
x2 = 0.7741	0.179
x2 = 0.8371	0.149
x2 = 0.8727	0.125
x2 = 0.9115	0.0939
x2 = 0.932	0.0755
x2 = 0.9536	0.0547
